The record followed here is ChEMBL document CHEMBL4346715, “Antibacterial activity study of 1,2,4-triazole derivatives” (Eur J Med Chem, 2019).

Format in all cases: functional
Test [1] relates to Staphylococcus aureus. Description: Antibacterial activity against Staphylococcus aureus incubated for 18 hrs post 30 mins pre-diffusion by disk diffusion method.
The test system of test [2] is Escherichia coli. In words: Antibacterial activity against Escherichia coli incubated for 18 hrs post 30 mins pre-diffusion by disk diffusion method. A general note: A growth-free zone around the sample is the usual read-out of agar diffusion tests.
Test [3] deals with Escherichia coli. In words: Antibacterial activity against Escherichia coli.
For test [4], the system named is Staphylococcus aureus. In words: Antibacterial activity against Staphylococcus aureus.
For test [5], the system named is Bacillus subtilis. Description: Antibacterial activity against Bacillus subtilis.
The subject of test [6] is Clostridium tetani. In words: Antibacterial activity against Clostridium tetani.
Test [7] has as its system Streptococcus pneumoniae. Description: Antibacterial activity against Streptococcus pneumoniae.
Test [8] deals with Pseudomonas aeruginosa. Description: Antibacterial activity against Pseudomonas aeruginosa.
Test [9] concerns Aspergillus niger. In words: Antifungal activity against Aspergillus niger.
Test [10] concerns Candida albicans. Description: Antifungal activity against Candida albicans.

Converted amounts (≈) assume the structure as drawn.

Consider `CSc1nccc(Sc2nnc(-c3cc(C)cc(C)c3)[nH]2)n1`, for which the MIC in test [1] and in test [2] was 1.6 to 250 mg/L (≈ 4.86 to 759 µM) each time.
For `COc1ccc(-c2cc(-c3c(C)nn(-c4ccccc4)c3-n3cncn3)n3c(n2)nc2ccccc23)cc1`, the MIC in [3], in test [4], in [5], in [6] and in test [7] was 62.5 to 250 mg/L (≈ 125 to 501 µM) in each case.
Turning to `CSc1nccc(Sc2nnc(-c3cc(C(F)(F)F)cc(C(F)(F)F)c3)[nH]2)n1`, the minimal inhibitory concentration (MIC) in test [1] and in test [2] was 1.6 to 250 mg/L (≈ 3.66 to 572 µM) each time.
Consider `Sc1nnc(-c2ccncc2)n1/N=C/c1ccc(Br)cc1`, for which the minimum inhibitory concentration (MIC) in test [8], in [9], in test [3], in [4], in [5] and in test [10] was 10.2 to 162 mg/L (≈ 28.3 to 451 µM) throughout.
With `Cc1cc(C)cc(-c2nnc(Sc3cc(Cl)nc(Sc4ccccc4)n3)[nH]2)c1`, the MIC in test [1] and in test [2] was 1.6 to 250 mg/L (≈ 3.76 to 587 µM) throughout.
Take `Cc1nn(-c2ccccc2)c(-n2cncn2)c1-c1cc(-c2ccc(-c3cccs3)cc2)nc2nc3ccccc3n12`: the MIC in test [3], in test [4], in [5], in [6] and in test [7] was 62.5 to 250 mg/L (≈ 114 to 454 µM) each time.
With `COc1ccc(/C=N/n2c(S)nnc2-c2ccncc2)cc1`, the MIC in test [8], in test [9], in test [3], in test [4], in [5] and in test [10] was 10.2 to 162 mg/L (≈ 32.8 to 522 µM) throughout.
As to `CSc1nc(Cl)cc(Sc2nnc(-c3cccc(C(F)(F)F)c3)[nH]2)n1`, the MIC in test [1] and in [2] was 1.6 to 250 mg/L (≈ 3.96 to 619 µM) each time.
As to `FC(F)(F)c1ccc(-c2nnc(Sc3cc(Cl)nc(Sc4ccccc4)n3)[nH]2)cc1`, the MIC in [1] and in test [2] was 1.6 to 250 mg/L (≈ 3.43 to 537 µM) throughout.
For `CC/C=N/n1c(S)nnc1-c1ccncc1`, the MIC in test [8], in [9], in test [3], in test [4], in [5] and in test [10] was 10.2 to 162 mg/L (≈ 43.7 to 697 µM) each time.
Regarding `Cc1ccc(/C=N/n2c(S)nnc2-c2ccncc2)cc1`, the minimal inhibitory concentration (MIC) in test [8], in [9], in [3], in [4], in test [5] and in test [10] was 10.2 to 162 mg/L (≈ 34.5 to 550 µM) in each case.
For `Fc1cccc(-c2nnc(Sc3cc(Cl)nc(Sc4ccccc4)n3)[nH]2)c1`, the MIC in [1] and in test [2] was 1.6 to 250 mg/L (≈ 3.85 to 601 µM) throughout.
Consider `CCC/C=N/n1c(S)nnc1-c1ccncc1`, for which the MIC in test [8], in [9], in test [3], in test [4], in [5] and in test [10] was 10.2 to 162 mg/L (≈ 41.2 to 657 µM) each time.
For `COc1cc(/C=N/n2c(S)nnc2-c2ccncc2)cc(OC)c1OC`, the minimal inhibitory concentration (MIC) in test [8], in [9], in [3], in test [4], in [5] and in [10] was 10.2 to 162 mg/L (≈ 27.5 to 438 µM) throughout.
With `CSc1nc(Cl)cc(Sc2nnc(-c3cc(F)cc(F)c3)[nH]2)n1`, the MIC in [1] and in test [2] was 1.6 to 250 mg/L (≈ 4.3 to 672 µM) each time.
For `Fc1cc(F)cc(-c2nnc(Sc3cc(Cl)nc(Sc4ccccc4)n3)[nH]2)c1`, the MIC in test [1] and in test [2] was 1.6 to 250 mg/L (≈ 3.69 to 576 µM) in each case.
Consider `Cc1cc(C)cc(-c2nnc(Sc3cc(Cl)ncn3)[nH]2)c1`, for which the MIC in [1] and in [2] was 1.6 to 250 mg/L (≈ 5.03 to 787 µM) throughout.
Take `CSc1nc(Cl)cc(Sc2nnc(-c3cccc(F)c3)[nH]2)n1`: the MIC in test [1] and in test [2] was 1.6 to 250 mg/L (≈ 4.52 to 707 µM) throughout.
Turning to `Cc1nn(-c2ccccc2)c(-n2cncn2)c1-c1cc(-c2ccccc2)nc2nc3ccccc3n12`, the MIC in test [3], in test [4], in test [5], in test [6] and in [7] was 62.5 to 250 mg/L (≈ 133 to 534 µM) in each case.
`CSc1nc(Cl)cc(Sc2nnc(-c3ccc(C(F)(F)F)cc3)[nH]2)n1`: the minimum inhibitory concentration (MIC) in test [1] and in [2] was 1.6 to 250 mg/L (≈ 3.96 to 619 µM) throughout.
`Cc1nn(-c2ccccc2)c(-n2cncn2)c1-c1cc(-c2ccc(O)cc2)nc2nc3ccccc3n12`: the minimum inhibitory concentration (MIC) in test [3], in [4], in test [5], in test [6] and in [7] was 62.5 to 250 mg/L (≈ 129 to 516 µM) each time.
`FC(F)(F)c1cc(-c2nnc(Sc3cc(Cl)ncn3)[nH]2)cc(C(F)(F)F)c1`: the minimal inhibitory concentration (MIC) in [1] and in test [2] was 1.6 to 250 mg/L (≈ 3.76 to 587 µM) each time.

The MIC is the least concentration at which growth counts as inhibited. Read a low MIC as greater potency.
